≈ marks a conversion by molar mass, not a printed value. Blank lines part the entries; values can stand above or below the compound they belong to.
Key:
Assay in all cases: ≥ marks a high value that may be exact or a test limit, other limits are often not marked, values filed in µg/mL are converted to µM
[1] = test system: Bacillus megaterium ATCC 10778
[2] = test system: Candida albicans MDM8
[3] = test system: Candida tropicalis IOC 4560
[4] = test system: Enterobacter cloacae beta-12
[5] = test system: Escherichia coli SBS 363
[6] = test system: Micrococcus luteus A270
[7] = test system: Serratia marcescens ATCC 4112
[8] = test system: Staphylococcus aureus ATCC 29213
[9] = test system: Staphylococcus epidermidis ATCC 12228
[10] = test system: Pseudomonas aeruginosa H1001
[11] = test system: Escherichia coli BW25113
[12] = test system: Escherichia coli J2210
[13] = test system: Escherichia coli JJ2489
[14] = test system: Escherichia coli JW0013
[15] = test system: Escherichia coli JW0368 ΔsbmA
[16] = test system: Escherichia coli JW2778 ΔygdD
[17] = test system: Escherichia coli MC1041
[18] = test system: Salmonella enterica subsp. enterica serovar Enteritidis MH91989
[19] = test system: Salmonella typhimurium SL1344
[20] = test system: Candida albicans ATCC 10231
[21] = test system: Cryptococcus neoformans ATCC 32045
[22] = test system: Escherichia coli ATCC 2592
[23] = test system: Pseudomonas aeruginosa ATCC 10145
[24] = test system: Staphylococcus aureus ATCC 33591

SMILES: CC(C)C[C@H](NC(=O)[C@H](C)NC(=O)[C@H](CCCCN)NC(=O)[C@H](CC(C)C)NC(=O)[C@@H](N)Cc1ccccc1)C(=O)N[C@@H](Cc1c[nH]c2ccccc12)C(=O)N[C@@H](CCCCN)C(=O)N[C@H](C(=O)N[C@@H](C)C(=O)N[C@@H](CCCCN)C(=O)N[C@@H](CCCCN)C(=O)N[C@H](C(=O)N[C@@H](Cc1ccccc1)C(N)=O)C(C)C)C(C)C [FLKALWKVAKKVF]
MIC [1]: 0.4 µM (≈ 0.631 µg/mL) | MIC [2]: 1.6 µM (≈ 2.52 µg/mL) | MIC [3]: 0.8 µM (≈ 1.26 µg/mL) | MIC [4]: 3.1 µM (≈ 4.89 µg/mL) | MIC [5]: 1.6 µM (≈ 2.52 µg/mL) | MIC [6]: 0.4 µM (≈ 0.631 µg/mL) | MIC [7]: 0.1 µM (≈ 0.158 µg/mL) | MIC [8]: 0.8 µM (≈ 1.26 µg/mL) | MIC [9]: 3.1 µM (≈ 4.89 µg/mL)

SMILES: CC(C)C[C@H](NC(=O)[C@H](CCCN=C(N)N)NC(=O)[C@@H]1CCCN1C(=O)[C@H](CCCN=C(N)N)NC(=O)[C@@H]1CCCN1C(=O)[C@@H]1CCCN1C(=O)[C@H](CCCN=C(N)N)NC(=O)[C@@H]1CCCN1C(=O)[C@H](CCC(N)=O)NC(=O)[C@@H]1CCCN1C(=O)[C@H](CCCCN)NC(=O)[C@H](Cc1ccc(O)cc1)NC(=O)[C@@H](NC(=O)[C@@H]1CCCN1C(=O)[C@H](CCCCN)NC(=O)[C@H](CC(N)=O)NC(=O)[C@H](CC(N)=O)NC(=O)CN)C(C)C)C(=O)O [GNNKPVYKPQPRPPRPRL]
MIC [11]: 0.096 µM (≈ 0.203 µg/mL) | MIC [12]: 0.267 µM (≈ 0.565 µg/mL) | MIC [13]: 0.252 µM (≈ 0.533 µg/mL) | MIC [14]: 0.096 µM (≈ 0.203 µg/mL) | MIC [15]: 0.192 µM (≈ 0.406 µg/mL) | MIC [16]: 0.192 µM (≈ 0.406 µg/mL) | MIC [17]: 0.192 µM (≈ 0.406 µg/mL) | MIC [18]: 0.133 µM (≈ 0.281 µg/mL) | MIC [19]: 0.192 µM (≈ 0.406 µg/mL)

SMILES: C[C@H](NC(=O)[C@H](CCCCN)NC(=O)[C@H](Cc1ccccc1)NC(=O)[C@H](C)NC(=O)[C@H](CCCCN)NC(=O)[C@H](Cc1ccccc1)NC(=O)[C@H](C)NC(=O)[C@H](CCCCN)NC(=O)[C@H](Cc1ccccc1)NC(=O)[C@H](C)NC(=O)[C@H](CCCCN)NC(=O)[C@H](Cc1ccccc1)NC(=O)[C@H](C)NC(=O)[C@H](CCCCN)NC(=O)[C@H](Cc1ccccc1)NC(=O)[C@H](C)NC(=O)[C@H](CCCCN)NC(=O)[C@H](Cc1ccccc1)NC(=O)[C@H](C)NC(=O)[C@H](CCCCN)NC(=O)[C@H](Cc1ccccc1)NC(=O)[C@H](C)NC(=O)[C@H](CCCCN)NC(=O)[C@H](Cc1ccccc1)NC(=O)[C@H](C)NC(=O)[C@H](CCCCN)NC(=O)[C@@H](N)Cc1ccccc1)C(=O)O [FKAFKAFKAFKAFKAFKAFKAFKAFKA]
MIC [20]: 113 µM (≈ 354 µg/mL) | MIC [21]: 28.1 µM (≈ 88 µg/mL) | MIC [22]: 14 µM (≈ 43.8 µg/mL) | MIC [23]: 6.38 µM (≈ 20 µg/mL) | MIC [24]: 14 µM (≈ 43.8 µg/mL)

SMILES: C[C@H](NC(=O)[C@H](Cc1ccccc1)NC(=O)[C@H](CCCN=C(N)N)NC(=O)[C@H](CCCN=C(N)N)NC(=O)[C@H](C)NC(=O)[C@H](Cc1ccccc1)NC(=O)[C@H](CCCN=C(N)N)NC(=O)[C@H](CCCN=C(N)N)NC(=O)[C@H](C)NC(=O)[C@H](Cc1ccccc1)NC(=O)[C@H](CCCN=C(N)N)NC(=O)[C@H](CCCN=C(N)N)NC(=O)[C@H](C)NC(=O)[C@H](Cc1ccccc1)NC(=O)[C@H](CCCN=C(N)N)NC(=O)[C@H](CCCN=C(N)N)NC(=O)[C@H](C)NC(=O)[C@H](Cc1ccccc1)NC(=O)[C@H](CCCN=C(N)N)NC(=O)[C@H](CCCN=C(N)N)NC(=O)[C@H](C)NC(=O)[C@H](Cc1ccccc1)NC(=O)[C@H](CCCN=C(N)N)NC(=O)[C@H](CCCN=C(N)N)NC(=O)[C@H](C)NC(=O)[C@H](Cc1ccccc1)NC(=O)[C@@H](N)CCCN=C(N)N)C(=O)N[C@@H](CCCN=C(N)N)C(=O)O [RFARRFARRFARRFARRFARRFARRFAR]
MIC [20]: 94.7 µM (≈ 354 µg/mL) | MIC [21]: 23.6 µM (≈ 88 µg/mL) | MIC [22]: 11.9 µM (≈ 44.5 µg/mL) | MIC [23]: 16.6 µM (≈ 62 µg/mL) | MIC [24]: ≥ 47.4 µM

SMILES: C[C@H](NC(=O)[C@H](CCCCN)NC(=O)[C@H](Cc1ccccc1)NC(=O)[C@H](C)NC(=O)[C@H](CCCCN)NC(=O)[C@H](Cc1ccccc1)NC(=O)[C@H](C)NC(=O)[C@H](CCCCN)NC(=O)[C@H](Cc1ccccc1)NC(=O)[C@H](C)NC(=O)[C@H](CCCCN)NC(=O)[C@H](Cc1ccccc1)NC(=O)[C@H](C)NC(=O)[C@H](CCCCN)NC(=O)[C@H](Cc1ccccc1)NC(=O)[C@H](C)NC(=O)[C@H](CCCCN)NC(=O)[C@@H](N)Cc1ccccc1)C(=O)O [FKAFKAFKAFKAFKAFKA]
MIC [20]: 169 µM (≈ 354 µg/mL) | MIC [21]: 2.7 µM (≈ 5.66 µg/mL) | MIC [22]: 21.2 µM (≈ 44.5 µg/mL) | MIC [23]: ≥ 47.7 µM | MIC [24]: ≥ 238 µM

Now from value to compound:

MIC [10]: 0.0878 µM (≈ 0.22 µg/mL)
SMILES: CC[C@H](C)[C@H](NC(=O)[C@H](CCCN=C(N)N)NC(=O)[C@H](CCCN=C(N)N)NC(=O)[C@@H]1CCCN1C(=O)[C@H](CCCN=C(N)N)NC(=O)[C@H](CCCN=C(N)N)NC(=O)[C@@H]1CCCN1C(=O)[C@H](CCCN=C(N)N)NC(=O)[C@@H]1CCCN1C(=O)[C@H](CC(C)C)NC(=O)[C@H](Cc1ccc(O)cc1)NC(=O)[C@@H]1CCCN1C(=O)[C@@H]1CCCN1C(=O)[C@H](CCCCN)NC(=O)[C@H](CC(=O)O)NC(=O)[C@@H](N)C(C)C)C(=O)N[C@@H](Cc1ccc(O)cc1)C(=O)N[C@@H](CC(N)=O)C(=O)N[C@@H](CCCN=C(N)N)C(=O)NCC(=O)O [VDKPPYLPRPRRPRRIYNRG]

MIC [11]: 0.067 µM (≈ 0.144 µg/mL) | MIC [12]: 0.252 µM (≈ 0.54 µg/mL) | MIC [13]: 0.133 µM (≈ 0.285 µg/mL) | MIC [14]: 0.062 µM (≈ 0.133 µg/mL) | MIC [15]: 0.096 µM (≈ 0.206 µg/mL) | MIC [16]: 0.133 µM (≈ 0.285 µg/mL) | MIC [17]: 0.133 µM (≈ 0.285 µg/mL) | MIC [18]: 0.096 µM (≈ 0.206 µg/mL) | MIC [19]: 0.192 µM (≈ 0.411 µg/mL)
SMILES: CC(C)C[C@H](NC(=O)[C@H](CCCN=C(N)N)NC(=O)[C@@H]1CCCN1C(=O)[C@H](CCCN=C(N)N)NC(=O)[C@@H]1CCCN1C(=O)[C@@H]1CCCN1C(=O)[C@H](CCCN=C(N)N)NC(=O)[C@@H]1CCCN1C(=O)[C@H](CCC(N)=O)NC(=O)[C@@H]1CCCN1C(=O)[C@H](CCCCN)NC(=O)[C@H](Cc1ccc(O)cc1)NC(=O)[C@@H](NC(=O)[C@@H]1CCCN1C(=O)[C@H](CCCN=C(N)N)NC(=O)[C@H](CC(N)=O)NC(=O)[C@H](CC(N)=O)NC(=O)CN)C(C)C)C(=O)O [GNNRPVYKPQPRPPRPRL]

MIC [10]: 0.0575 µM (≈ 0.14 µg/mL)
SMILES: CC[C@H](C)[C@H](NC(=O)[C@H](CCCN=C(N)N)NC(=O)[C@H](CCCN=C(N)N)NC(=O)[C@@H]1CCCN1C(=O)[C@@H]1CCCN1C(=O)[C@H](CCCN=C(N)N)NC(=O)[C@@H]1CCCN1C(=O)[C@H](CCCN=C(N)N)NC(=O)[C@@H]1CCCN1C(=O)[C@H](CC(C)C)NC(=O)[C@H](Cc1ccc(O)cc1)NC(=O)[C@@H]1CCCN1C(=O)[C@@H]1CCCN1C(=O)[C@H](CCCCN)NC(=O)[C@H](CC(=O)O)NC(=O)[C@@H](N)C(C)C)C(=O)N[C@@H](Cc1ccc(O)cc1)C(=O)N[C@@H](CS)C(=O)N[C@@H](CCCN=C(N)N)C(=O)NCC(=O)O [VDKPPYLPRPRPPRRIYCRG]

MIC [10]: 0.107 µM (≈ 0.26 µg/mL)
SMILES: CC[C@H](C)[C@H](NC(=O)[C@H](CCCN=C(N)N)NC(=O)[C@H](CCCN=C(N)N)NC(=O)[C@@H]1CCCN1C(=O)[C@@H]1CCCN1C(=O)[C@H](CCCN=C(N)N)NC(=O)[C@@H]1CCCN1C(=O)[C@H](CCCN=C(N)N)NC(=O)[C@@H]1CCCN1C(=O)[C@H](CC(C)C)NC(=O)[C@H](Cc1ccc(O)cc1)NC(=O)[C@@H]1CCCN1C(=O)[C@@H]1CCCN1C(=O)[C@H](CCCCN)NC(=O)[C@H](CC(=O)O)NC(=O)[C@@H](N)C(C)C)C(=O)N[C@@H](Cc1ccc(O)cc1)C(=O)N[C@@H](CC(N)=O)C(=O)N[C@@H](CCCCN)C(=O)NCC(=O)O [VDKPPYLPRPRPPRRIYNKG]

Source: DBAASP
